Test results from patent US20040096498A1, “Oral pharmaceutical delivery system with improved sustained release” (priority 2002, published 2004).

Experiment: Single oral dose pharmacokinetic study in dogs, varying the testosterone dose (Example 1)
Assay type: in vivo, dogs (female beagles)
Conditions: for Average Serum Testosterone / concentration at 0.5 h / concentration at 1 h / concentration at 2 h / concentration at 4 h / concentration at 5 h / concentration at 6 h / concentration at 8 h / concentration at 24 h: single oral; for Average Serum Testosterone: time 0 h (pre-dose); for Sustained release time, Lipid Suspension Time: time serum levels fell between about 300 and 1100 ng/dl; for concentration at 0.5 h / concentration at 1 h / concentration at 2 h / concentration at 4 h / concentration at 5 h / concentration at 6 h / concentration at 8 h / concentration at 24 h: female, beagle, dog, serum
Protocol: A study using six dogs (female beagles) was made to obtain preliminary pharmacokinetic data following a single oral dose of the delivery system. The dogs were 13-24 months old, and weighed in the range of 10.4 to 13.2 kg.
The dosing was done in four sequential one day intervals with a minimum two day rest period in between each interval. Blood was drawn immediately before the dose was administered. […] The animals were given the placebo or test article, as described above, at approximately the same time each day, immediately prior to being fed. The dog ate its food within 30 minutes of the dose being administered.
Blood samples were collected pre-dose and at 0.5, 1, 2, 4, 5, 6, 8 and 24 hours post dosing. At each time point, a minimum of 3 mL whole blood (or minimum volume determined by assay requirement) were collected by venipuncture of the jugular vein into non-heparinized Vacutainer tubes. The blood was centrifuged to obtain serum, which was kept on ice until placed into an appropriately sized vial, and frozen at −70° C. The samples remained frozen until delivered on dry ice to the lab for analysis. The lab used radioimmunoassay to analyse for testosterone.
Determining the sustained release properties of the samples in Example 1 by evaluating the amount of time the blood serum levels fell between about 300 and 1100 ng/dl, the sustained release times for Example 1 are given in Table 3. It is desirable to have release properties that are fairly constant with time. It is undesirable to have sharp peaks or drops in serum concentration of the drug.

## C[C@]12CC[C@H]3[C@@H](CCC4=CC(=O)CC[C@@]43C)[C@@H]1CC[C@@H]2O [Testosterone, testosterone]
Dose 25 mg
  Average Serum Testosterone: 0 ng/dL
  Sustained release time, Lipid Suspension Time: 1 h
  concentration at 0.5 h: 2.86 ng/mL
  concentration at 1 h: 3.9 ng/mL
  concentration at 2 h: 4.25 ng/mL
  concentration at 4 h: 1.18 ng/mL
  concentration at 5 h: 0.35 ng/mL
  concentration at 6 h: 0.53 ng/mL
  concentration at 8 h: 0.23 ng/mL
  concentration at 24 h: 0.01 ng/mL
Dose 50 mg
  Average Serum Testosterone: 1 ng/dL
  Sustained release time, Lipid Suspension Time: 0 h
  concentration at 0.5 h: 1.54 ng/mL
  concentration at 1 h: 2.86 ng/mL
  concentration at 2 h: 3.76 ng/mL
  concentration at 4 h: 2.88 ng/mL
  concentration at 5 h: 2.15 ng/mL
  concentration at 6 h: 1.07 ng/mL
  concentration at 8 h: 0.54 ng/mL
  concentration at 24 h: 0.07 ng/mL
Dose 100 mg
  Average Serum Testosterone: 0 ng/dL
  Sustained release time, Lipid Suspension Time: 7 h
  concentration at 0.5 h: 2.7 ng/mL
  concentration at 1 h: 3.09 ng/mL
  concentration at 2 h: 4.5 ng/mL
  concentration at 4 h: 5.22 ng/mL
  concentration at 5 h: 6.18 ng/mL
  concentration at 6 h: 3.57 ng/mL
  concentration at 8 h: 4.22 ng/mL
  concentration at 24 h: 0.02 ng/mL
Dose 250 mg
  Average Serum Testosterone: 26 ng/dL
  Sustained release time, Lipid Suspension Time: 7 h
  concentration at 0.5 h: 2.64 ng/mL
  concentration at 1 h: 5.55 ng/mL
  concentration at 2 h: 8.35 ng/mL
  concentration at 4 h: 10.3 ng/mL
  concentration at 5 h: 8.29 ng/mL
  concentration at 6 h: 9.8 ng/mL
  concentration at 8 h: 7.57 ng/mL
  concentration at 24 h: 0.08 ng/mL
